Measured values taken from patent US20240101584A1, “TARGETED DELIVERY OF 1,2,4,5 TETRAOXANE COMPOUNDS AND THEIR USES” (Westlake University, priority 2021, published 2024).
Entries after “also recorded” stand apart in the source; their conditions may differ. Where two headings read alike, the source gives them in different places.

Assays:
MDA-MB-231 cells = assay: MTT viability assay, MDA-MB-231 cells; assay type: cell-based
Experimental: (§1) The anticancer activities of the exemplary compounds listed in Example 1 were tested against human cervix Hela cells, mammary breast cancer MDA-MB-231 cells, human hepatocellular HepG2 cells, human colorectal HCT116 cells, mammary ductal T47D cells, non-cancerous NIH3T3 cells, dog's kidney MDCK cells, and mouse brain bEnd.3 cells, respectively.

NIH3T3 cells = assay: MTT viability assay, non-cancerous NIH3T3 cells; assay type: cell-based
Experimental: as §1

HEYA8 CSCs = assay: CellTiter-Glo viability, HeyA8 cancer stem cells (spheres); assay type: cell-based; conditions: 5 μM of erastin, 50 μM of artesunate; RSL3 single dose
Hela cells = assay: MTT viability assay, Hela cells; assay type: cell-based, human; conditions: 48 h incubation, mean, n = 3, read-out: IC50 against Hela cells
Experimental: as §1

T47D cells = assay: MTT viability assay, T47D cells; assay type: cell-based
Experimental: as §1

MDCK cells = assay: MTT viability assay, MDCK cells; assay type: cell-based, dog; conditions: 48 h incubation, mean, n = 3, read-out: IC50 against MDCK cells
Experimental: as §1

HEK293 cells = assay: MTT viability assay, HEK293 cells; assay type: cell-based; conditions: Homo sapiens, HEK293, 48 h incubation, mean, n = 3, read-out: IC50 against HEK293 cells
HepG2 cells = assay: MTT viability assay, HepG2 cells; assay type: cell-based, human; conditions: Homo sapiens, HepG2; MTT, 48 h incubation, mean, n = 3; read-out: IC50 against HepG2 cells
Experimental: as §1

HCT116 cells = assay: MTT viability assay, HCT116 cells; assay type: cell-based, human; conditions: Homo sapiens, HCT-116; MTT, 48 h incubation, mean, n = 3; read-out: IC50 against HCT116 cells
Experimental: as §1

bEnd.3 cells = assay: MTT viability assay, bEnd.3 cells; assay type: cell-based, mouse; conditions: Mus musculus, BEND3, 48 h incubation, mean, n = 3, read-out: IC50 against bEnd.3 cells
Experimental: as §1

HeyA8 cells = assay: CellTiter-Glo viability, adherent HeyA8 ovarian cancer cells; assay type: cell-based; conditions: high concentration
[1] = Homo sapiens, MDA-MB-231, 48 h, MTT, 48 h incubation, mean, n = 3, read-out: IC50 against MDA-MB-231 cells
[2] = Mus musculus, NIH3T3, MTT, 48 h incubation, mean, n = 3, read-out: IC50 against NIH3T3 cells
[3] = Homo sapiens, T47D, MTT, 48 h incubation, mean, n = 3, read-out: IC50 against T47D cells

Row | Compound | IC50 (MDA-MB-231 cells; [1]) [µM] | IC50 (Hela cells; Homo sapiens, HeLa) [µM] | IC50 (T47D cells; [3]) [µM] | IC50 (NIH3T3 cells; [2]) [µM] | IC50 (MDCK cells; Canis lupus familiaris, MDCK) [µM] | further results
1 | CCOc1ccccc1-n1c(C(C)N2CCN(C(=O)COc3ccc(Cl)cc3)CC2)nc2ccccc2c1=O (centres unmarked) [Erastin, reference compound] | 1.3 | – | – | 0.29 | – | cytotoxic effect on HEYA8 CSCs at single dose (HEYA8 CSCs): did not show any cytotoxic effect; also recorded: almost insensitive
2 | CC(C)(C)C1CCC2(CC1)OOC1(CCC(OC(=O)NCCCCO[C@@H]3O[C@H](CO)[C@@H](O)[C@H](O)[C@H]3O)CC1)OO2 (stereo partly drawn) [Compound 37i, 12-(tert-butyl)-7,8,15,16-tetraoxadispiro[5.2.59.26]hexadecan-3-yl(4-(((2R,3R,4S,5S,6R)-3,4,5-trihydroxy-6-(hydroxymethyl)tetrahydro-2H-pyran-2-yl)oxy)butyl)carbamate] | – | – | – | – | – | IC50 (MDA-MB-231 cells; MTT, 48 h incubation, mean, n = 3, read-out: IC50 against MDA-MB-231 cells): 24.3 µM; IC50 (Hela cells): 28.5 µM; IC50 (T47D cells; MTT, 48 h incubation, mean, n = 3, read-out: IC50 against T47D cells): 13.2 µM; IC50 (NIH3T3 cells; MTT, 48 h incubation, mean, n = 3, read-out: IC50 against NIH3T3 cells): > 100 µM; IC50 (MDCK cells): > 50 µM
3 | CC(C)(C)C1CCC2(CC1)OOC1(CCC(OC(=O)NCCCN(Cc3ccccc3)Cc3ccccc3)CC1)OO2 (centres unmarked) [Compound 37d, 12-(tert-butyl)-7,8,15,16-tetraoxadispiro[5.2.59.26]hexadecan-3-yl(3-(dibenzylamino)propyl)carbamate] | 31.7 | 24.8 | 10.4 | 30.3 | > 100 | –

Now from value to compound, other results behind:

Row | IC50 (MDA-MB-231 cells; [1]) [µM] | IC50 (Hela cells; Homo sapiens, HeLa) [µM] | IC50 (T47D cells; [3]) [µM] | Compound | IC50 (NIH3T3 cells; [2]) [µM] | IC50 (MDCK cells; Canis lupus familiaris, MDCK) [µM] | further results
4 | 7.4 | 15.1 | 6.1 | CC(C)(C)C1CCC2(CC1)OOC1(CCC(O)CC1)OO2 (centres unmarked) [Compound 37, 12-(tert-butyl)-7,8,15,16-tetraoxadispiro[5.2.59.26]hexadecan-3-ol] | 7.1 | > 50 | IC50 (HEK293 cells): 5.8 µM; IC50 (HepG2 cells): 4.8 µM; IC50 (HCT116 cells): 14.4 µM; IC50 (bEnd.3 cells): > 100 µM
5 | 23.9 | 30.6 | 10.6 | CC(C)(C)C1CCC2(CC1)OOC1(CCC(OC(=O)NCCOCCOCCNC(=O)OC3CCC4(CC3)OOC3(CCC(C(C)(C)C)CC3)OO4)CC1)OO2 (centres unmarked) [Compound 37j, bis(12-(tert-butyl)-7,8,15,16-tetraoxadispiro[5.2.59.26]hexadecan-3-yl) ((ethane-1,2-diylbis(oxy))bis(ethane-2,1-diyl))dicarbamate] | > 100 | > 100 | –
6 | 20.3 | – | – | C[C@H]1[C@H](OC(=O)CCC(=O)O)O[C@@H]2O[C@@]3(C)CC[C@H]4[C@H](C)CC[C@@H]1[C@@]24OO3 [Artesunate, reference compound] | 17.4 | – | cell death of adherent HEYA8 cells (HeyA8 cells): ~50%; cytotoxic effect on HEYA8 CSCs at single dose (HEYA8 CSCs): did not show any cytotoxic effect; also recorded: almost insensitive
7 | < 4 | 3.1 | 1.3 | CC(C)(C)C1CCC2(CC1)OOC1(CCC(OC(=O)N3CCNCC3)CC1)OO2 (centres unmarked) [Compound 37f, 12-(tert-butyl)-7,8,15,16-tetraoxadispiro[5.2.59.26]hexadecan-3-yl piperazine-1-carboxylate] | 11.6 | 12.4 | IC50 (MDA-MB-231 cells; Homo sapiens, MDA-MB-231, Table 12b, read-out: IC50 MDA-MB-231): 2.9 ± 0.8 µM; selectivity index (IC50 of NIH3T3 divided by IC50 on MDA-MB-231) (MDA-MB-231 cells; Table 12b, value in bracket): (>4); IC50 (T47D cells; Homo sapiens, T47D, Table 12b, read-out: IC50 T47D): 1.3 ± 0.6 µM; selectivity index (IC50 of NIH3T3 divided by IC50 on T47D) (T47D cells; Table 12b, value in bracket): (>8.9); IC50 (NIH3T3 cells; Mus musculus, NIH3T3, Table 12b, read-out: IC50 NIH3T3): 11.6 ± 2.4 µM
